Reference: US8318950B2, “N-acyl amino acid derivatives, a method for the preparation thereof, a pharmaceutical composition and use thereof as anti-allergic, anti-inflammatory and hypolipidemic agents” (Otkrytoe Aktsionernoe Obschestvo-Otechestvennye Lekarstva, priority 2005, dated 2012)
“And” between values parts separate entries of the source, which are not always exact repeats. Identical values can stand only once.

Test system: hypercholesterolemia in Wistar rats
Experiment: Model of hypercholesterolemia in rats (oral cholesterol loading)
Format: in vivo, rat
Experimental: The study was carried out on male Wistar rats weighing 200±20 g. Hyperlipidemia was induced by oral administration of cholesterol loading, oily cholesterol suspension:
olive oil (Acorsa, Spain)—5 ml/kg weigh of animals;
cholesterol (Sigma, USA)—1 g/kg weight;
sodium cholate (Sigma, USA)—100 mg/kg weight.
As a reference preparation, the preparation from the group of statines “Mevacor” (Lovastatine) manufactured by the firm Merck Sharp & Dohn was used at dose 40 mg/kg. Cholesterol suspension was administered daily in the morning for 10 days. The compounds tested (at dose 500 μg/kg) and the reference preparation (at dose 40 mg/kg) were administered to the animals togester with cholesterol suspension for 10 days. All the animals received a standard briquetted forage.
The animals were divided into the following groups:
“Control”—intact animals (n=5);
“Cholesterol”—rats that orally received cholesterol loading (n=10);
“Lovastatine”—rats that orally received cholesterol loading and Lovastatine (n=10);
“Compound IV”—rats that orally received cholesterol loading and the tested compound IV (n=10).
Blood was sampled at days 5, 8 and 10 of the experiment.
Statistical processing of the hypolipidemic action data of the tested substances was carried out with regard to the “Cholesterol” group (Table 13).
Experimental groups included:
1) “Cholesterol”—rats orally administered with oily cholesterol suspension for 10 days;
2) “Compound IV”—rats orally administered with oily cholesterol suspension and the tested compound N;
3) “Compound IV—1Na”—rats orally administered with oily cholesterol suspension and the tested mono-sodium salt of compound N;
4) “Compound IV—2Na”—rats orally administered with oily cholesterol suspension and the tested di-sodium salt of compound N;
5) “Compound V—1Na”—rats orally administered with oily cholesterol suspension and the tested mono-sodium salt of the compound V;
6) “Compound III—1Na”—rats orally administered with oily cholesterol suspension and the tested mono-sodium salt of the compound III;
7) “Compound II—1Na”—rats orally administered with oily cholesterol suspension and the tested mono-sodium salt of the compound II;
8) “Sim”—rats orally administered with oily cholesterol suspension and Simvastatine;
9) control—intact rats before beginning the test.
At day 10 of the test blood samples were taken following decapitation of the animals. The animals fasted for 12 hours prior to decapitation.
Blood serum total cholesterol, triglycerides and high density lipoprotein cholesterol (HDLC) were measured. Low and very low density lipoprotein cholesterol was calculated by the difference between total cholesterol and HDL cholesterol.
Blood serum total cholesterol and triglycerides were determined using the enzymatic methods.
Cholesterol level in high density lipoproteins (α-LP) was determined using the precipitation method of LDL and VLDL with phosphotungstic acid and magnesium ions.
Data in the tables are presented as a mean value±standard error. Significance of differences between the groups “cholesterol” and “preparation.” was assessed by the two-sampled Student's t-test.

[1] = day 5 of the experiment (Table 15)
[2] = day 5 of the experiment (Table 15), oral with oily cholesterol suspension
[3] = day 8 of the experiment (Table 16)
[4] = day 10 of the experiment (Table 17)
[5] = day 10 of the experiment (Table 21), Monosodium Salt
[6] = day 5 of the experiment (Table 19)
[7] = day 5 of the experiment (Table 19, n = 12 series)
[8] = day 8 of the experiment (Table 20)
[9] = day 10 of the experiment (Table 21)
[10] = rats with cholesterol loading, vs Cholesterol group
[11] = oral 10 days with cholesterol loading, tested compound 500 μg/kg, reference 40 mg/kg (Table 13)

SMILES: O=C([O-])CCCC(=O)N[C@@H](Cc1c[nH]cn1)C(=O)O.[Na+] [Compound IV-1Na, N^α-glutaryl-L-histidine Monosodium Salt]
- Total cholesterol, HDL [1]: 33.1 ± 1.4 mg/100 ml
- Total cholesterol, LDL + VLDL [1]: 38.8 ± 2.9 mg/100 ml
- Triglycerides, Serum [1]: 106.6 ± 6.2 mg/100 ml
- Total cholesterol, Serum [2]: 72.0 ± 3.0 mg/100 ml
- Total cholesterol, HDL (day 5 of the experiment (Table 19), Monosodium Salt): 60.7 ± 3.1 mg/100 ml and 55.1 ± 2.8 mg/100 ml
- Total cholesterol, Serum (day 5 of the experiment (Table 19, n = 12 series), Monosodium Salt): 94.4 ± 3.4 mg/100 ml and 96.9 ± 4.5 mg/100 ml
- Total cholesterol, HDL [3]: 37.1 ± 1.4 mg/100 ml
- Total cholesterol, LDL + VLDL [3]: 61.9 ± 6.6 mg/100 ml
- Total cholesterol, Serum [3]: 99.1 ± 6.0 mg/100 ml
- Triglycerides, Serum [3]: 146.4 ± 11.2 mg/100 ml
- Total cholesterol, HDL [4]: 37.7 ± 1.0 mg/100 ml
- Total cholesterol, LDL + VLDL [4]: 59.7 ± 7.2 mg/100 ml
- Total cholesterol, Serum [4]: 97.4 ± 7.1 mg/100 ml
- Triglycerides, Serum [4]: 132.5 ± 8.4 mg/100 ml
- Total cholesterol, HDL [5]: 53.4 ± 2.2 mg/100 ml and 52.9 ± 3.8 mg/100 ml
- Total cholesterol, LDL + VLDL [5]: 68.7 ± 10.1 mg/100 ml and 70.5 ± 8.9 mg/100 ml
- Total cholesterol, Serum [5]: 122.1 ± 9.8 mg/100 ml and 123.3 ± 7.3 mg/100 ml

SMILES: O=C([O-])CCCC(=O)N[C@@H](Cc1c[nH]cn1)C(=O)[O-].[Na+].[Na+] [Compound IV” 2Na, N^α-glutaryl-L-histidine disodium salt]
- Total cholesterol, HDL [1]: 35.0 ± 1.3 mg/100 ml
- Total cholesterol, LDL + VLDL [1]: 44.3 ± 2.7 mg/100 ml
- Triglycerides, Serum [1]: 88.3 ± 4.8 mg/100 ml
- Total cholesterol, Serum [2]: 80.6 ± 2.8 mg/100 ml
- Total cholesterol, HDL [3]: 35.9 ± 1.8 mg/100 ml
- Total cholesterol, LDL + VLDL [3]: 54.3 ± 5.8 mg/100 ml
- Total cholesterol, Serum [3]: 90.2 ± 5.1 mg/100 ml
- Triglycerides, Serum [3]: 125.8 ± 9.4 mg/100 ml
- Total cholesterol, HDL [4]: 40.0 ± 1.9 mg/100 ml
- Total cholesterol, LDL + VLDL [4]: 57.3 ± 4.3 mg/100 ml
- Total cholesterol, Serum [4]: 97.9 ± 3.9 mg/100 ml
- Triglycerides, Serum [4]: 127.3 ± 6.2 mg/100 ml
- effect on serum total triglycerides (in words) (rats with cholesterol loading): lowered serum total triglyceride levels at days 5 and 10

SMILES: O=C([O-])CCC(=O)N[C@@H](Cc1c[nH]cn1)C(=O)O.[Na+] [Compound V—1Na, N^α-succinyl-L-histidine Monosodium Salt]
- effect on serum total triglycerides (in words) (rats with cholesterol loading): ability thereof to lower serum total triglyceride levels

SMILES: O=C(O)CCC(=O)N[C@@H](Cc1c[nH]c2ccccc12)C(=O)[O-].[Na+] [II-1Na, N^+-succinyl-L-tryptophane Monosodium Salt]
- Total cholesterol, HDL [6]: 49.5 ± 3.8 mg/100 ml
- Total cholesterol, LDL + VLDL [6]: 60.2 ± 10.6 mg/100 ml
- Triglycerides, HDL [6]: 32.6 ± 2.5 mg/100 ml
- Triglycerides, LDL + VLDL [6]: 48.2 ± 4.9 mg/100 ml
- Triglycerides, Serum [6]: 80.9 ± 5.5 mg/100 ml
- Total cholesterol, Serum [7]: 109.7 ± 9.4 mg/100 ml
- Total cholesterol, HDL [8]: 52.9 ± 4.1 mg/100 ml
- Total cholesterol, LDL + VLDL [8]: 87.9 ± 14.5 mg/100 ml
- Total cholesterol, Serum [8]: 140.8 ± 13.6 mg/100 ml
- Triglycerides, HDL [8]: 44.5 ± 2.5 mg/100 ml
- Triglycerides, LDL + VLDL [8]: 73.9 ± 15.4 mg/100 ml
- Triglycerides, Serum [8]: 111.6 ± 17.2 mg/100 ml
- Total cholesterol, HDL [9]: 54.7 ± 2.2 mg/100 ml
- Total cholesterol, LDL + VLDL [9]: 79.7 ± 12.6 mg/100 ml
- Total cholesterol, Serum [9]: 134.4 ± 12.5 mg/100 ml
- Triglycerides, HDL [9]: 38.9 ± 2.4 mg/100 ml
- Triglycerides, LDL + VLDL [9]: 69.6 ± 11.1 mg/100 ml
- Triglycerides, Serum [9]: 108.5 ± 11.3 mg/100 ml

SMILES: O=C([O-])CCCC(=O)N[C@@H](Cc1c[nH]c2ccccc12)C(=O)O.[Na+] [III-1Na, N^α-glutaryl-L-tryptophan Monosodium Salt]
- Total cholesterol, HDL [6]: 49.0 ± 2.1 mg/100 ml
- Total cholesterol, LDL + VLDL [6]: 40.0 ± 5.4 mg/100 ml
- Triglycerides, HDL [6]: 30.0 ± 2.2 mg/100 ml
- Triglycerides, LDL + VLDL [6]: 57.4 ± 9.1 mg/100 ml
- Triglycerides, Serum [6]: 87.4 ± 9.4 mg/100 ml
- Total cholesterol, Serum [7]: 89.0 ± 5.0 mg/100 ml
- Total cholesterol, HDL [8]: 48.4 ± 2.7 mg/100 ml
- Total cholesterol, LDL + VLDL [8]: 60.4 ± 8.3 mg/100 ml
- Total cholesterol, Serum [8]: 108.8 ± 8.2 mg/100 ml
- Triglycerides, HDL [8]: 45.2 ± 3.2 mg/100 ml
- Triglycerides, LDL + VLDL [8]: 79.2 ± 7.7 mg/100 ml
- Triglycerides, Serum [8]: 124.4 ± 8.9 mg/100 ml
- Total cholesterol, HDL [9]: 48.8 ± 2.4 mg/100 ml
- Total cholesterol, LDL + VLDL [9]: 53.5 ± 7.3 mg/100 ml
- Total cholesterol, Serum [9]: 102.3 ± 6.9 mg/100 ml
- Triglycerides, HDL [9]: 34.3 ± 2.3 mg/100 ml
- Triglycerides, LDL + VLDL [9]: 75.0 ± 8.5 mg/100 ml
- Triglycerides, Serum [9]: 109.3 ± 10.5 mg/100 ml
- effect on HDL cholesterol (in words) (rats with cholesterol loading): did not change
- effect on serum total triglycerides (in words) (rats with cholesterol loading): did not change
- lowered cholesterol of the VLDL+LDL fractions [10]: 40%
- lowered total cholesterol [10]: 29%

SMILES: CC[C@H](C)C(=O)O[C@H]1C[C@@H](C)C=C2C=C[C@H](C)[C@H](CC[C@@H]3C[C@@H](O)CC(=O)O3)[C@H]21 [Lovastatine, reference compound]
- Total cholesterol, CHDL [11]: 50.6 ± 1.3 mg/100 ml
- Total cholesterol, CLLD + CLVLD [11]: 49.9 ± 0.9 mg/100 ml
- Total cholesterol, Liver [11]: 2.41 ± 0.17 mg/g of tissue
- Total cholesterol, Serum [11]: 100.5 ± 6.7 mg/100 ml
- Triglycerids, Liver [11]: 6.25 ± 0.13 mg/g of tissue
- Triglycerids, Serum [11]: 93.6 ± 7.5 mg/100 ml

SMILES: CCC(C)(C)C(=O)O[C@H]1C[C@@H](C)C=C2C=C[C@H](C)[C@H](CC[C@@H]3C[C@@H](O)CC(=O)O3)[C@H]21 [Sim, Simvastatine, reference compound]
- Total cholesterol, HDL [1]: 27.8 ± 2.7 mg/100 ml
- Total cholesterol, LDL + VLDL [1]: 43.0 ± 8.3 mg/100 ml
- Triglycerides, Serum [1]: 108.9 ± 6.9 mg/100 ml
- Total cholesterol, Serum [2]: 73.6 ± 7.3 mg/100 ml
- Total cholesterol, HDL [3]: 33.2 ± 1.8 mg/100 ml
- Total cholesterol, LDL + VLDL [3]: 66.9 ± 13.4 mg/100 ml
- Total cholesterol, Serum [3]: 100.1 ± 12.8 mg/100 ml
- Triglycerides, Serum [3]: 119.9 ± 10.5 mg/100 ml
- Total cholesterol, HDL [4]: 32.7 ± 1.2 mg/100 ml
- Total cholesterol, LDL + VLDL [4]: 61.2 ± 9.7 mg/100 ml
- Total cholesterol, Serum [4]: 93.9 ± 10.2 mg/100 ml
- Triglycerides, Serum [4]: 142.0 ± 5.4 mg/100 ml
- effect on HDL cholesterol (in words) (rats with cholesterol loading): did not effect
